These results are taken from patent US20060063198A1, “Diagnostic marker” (priority 2004, published 2006).

No end group written: not given here. *: point of attachment. For = O=C*

For one series, the system named is human neutrophils. The series can be described thus: Neutrophil chemotaxis in a modified Boyden chamber assay. The conditions noted are these: synthetic peptides, fMLP as comparator. In kind it is cell-based. How it is done: Serum and plasma samples were collected from six female healthy volunteers aged 20-29, and ten ACS patients. Clinical diagnosis of the ten ACS patients indicated one unstable angina patient and 9 patients with acute myocardial infarction (AMI). The unstable angina patient arrived to the Emergency Department 30.5 hours after symptoms onset. Seven of the nine AMI patients presented to the Emergency Department within 1.5-3.5 hours after onset of chest pain. The other two AMI patients arrived 10 hours and 24 hours after symptoms onset. Blood samples were collected upon arrival of the patient, centrifuged and stored at −70° C. for up to 21 days. Serum and plasma samples were tested for neutrophil chemotactic activity using a modified Boyden chamber technique and human neutrophils as indicator cells (see, for example, Elgebaly, S. A., et al. J. Mol. Cell. Cardiol. 21:585-593, 1989; and Elgebaly, S. A., et al. Am. J. Pathol. 137:1233-1241, 1990, each of which is incorporated by reference in its entirety).
Samples were also fractionated using high performance liquid chromatography (HPLC) and a size exclusion column (1-300 kDa). The 5 kDa and lower molecular weight fractions were collected and assayed for neutrophil chemotactic activity. The standard synthetic chemoattractant fMet-Leu-Phe (f-MLP) was used as the positive control for 100% chemotactic response. Hank's Balanced Salt Solution (HBSS) was the negative control for random migration. Neutrophil migration was reported as chemotactic index of counted cells trapped within 10-micron membrane layer. The average of three readings were calculated for each filter. [formula]
(§1) A synthetic peptide having the sequence: N-formyl-[…] Synthetic peptides of sequence: MIINHNLAAINSHR (i.e., unmodified peptide 3) and of sequence: […]

The subject of another series is neutrophils. Put plainly: Chemotactic activity retained after overnight refrigeration. The format is cell-based. The conditions noted are these: unlike fMLP.
Description: as §1

With MIINHNLAAINSHR [sequence 3], in the series with human neutrophils, the chemotaxis of neutrophils entry is “promoted chemotaxis to a lesser degree”.
As to MIINHNLAAINSHRSPGADGNGGEAMPGGG [3+9], the chemotaxis of neutrophils entry with human neutrophils is recorded as “promoted chemotaxis to a lesser degree”. The “chemotactic activity when refrigerated overnight” value in the series with neutrophils is listed as “retained chemotactic activity”.
Regarding N-formyl-MENHK [N-formyl-7], the chemotaxis of neutrophils result with human neutrophils is “promote chemotaxis to a lesser degree than fMLP”.
“N-formyl-MIINHNLAAINSHR (For-MIINHNLAAINSHR) [N-formyl-3]”: the chemotaxis of neutrophils entry with human neutrophils is on record as “promoted strong chemotaxis”. Besides, the “chemotactic activity when refrigerated overnight” value in the series on neutrophils was “retained chemotactic activity”.
The matching figures for “N-formyl-MIINHNLAAINSHRSPGADGNGGEAMPGGGK (For-MIINHNLAAINSHRSPGADGNGGEAMPGGGK) [N-formyl-3+9+K]”: “promoted strong chemotaxis” and “retained chemotactic activity”.
In the case of “N-formyl-MNTRAMNDASGR (For-MNTRAMNDASGR) [N-formyl-5]”, the chemotaxis of neutrophils entry with human neutrophils was “promote chemotaxis to a lesser degree than fMLP”.
Still for that read-out and setting: under SPGADGNGGEAMPGGG [sequence 9] stands “no chemotactic activity”.
